Laboratory results as given in ChEMBL document CHEMBL4680243, “N-benzyl 4,4-disubstituted piperidines as a potent class of influenza H1N1 virus inhibitors showing a novel mechanism of hemagglutinin fusion peptide interaction” (Eur J Med Chem, 2020).
The source made the active and inactive calls. No cut-off for these calls is given here.

Tests used:
Influenza A virus [1] = assay: Antiviral activity against Influenza A virus (A/PR 8/34 (H1N1)) infected in MDCK cells assessed as reduction in viral RNA synthesis at 20 uM treated at 1 hr post-infection by RT-qPCR analysis; assay type: functional, organism-based; conditions: A/Puerto Rico/8/1934(H1N1)
Influenza A virus [2] = assay: Antiviral activity against Influenza A virus (A/PR 8/34 (H1N1)) infected in MDCK cells assessed as reduction in virus-induced cytopathic effect measured after 72 hrs by microscopic analysis; assay type: functional, organism-based; conditions: A/Puerto Rico/8/1934(H1N1)
Influenza A virus [3] = assay: Antiviral activity against Influenza A virus (A/PR 8/34 (H1N1)) infected in MDCK cells assessed as reduction in virus-induced cytopathic effect measured after 72 hrs by MTS assay; assay type: functional, organism-based; conditions: A/Puerto Rico/8/1934(H1N1)
[4] = Cytotoxicity against MDCK cells assessed as change in cell morphology measured after 72 hrs by microscopic analysis; assay type: cell-based, Canis lupus familiaris; conditions: dog
[5] = Cytotoxicity against MDCK cells assessed as reduction in cell viability measured after 72 hrs by MTS assay; assay type: cell-based, Canis lupus familiaris; conditions: dog
[6] = Selectivity index, ratio of CC50 for MDCK cells to EC50 for antiviral activity against Influenza A virus (A/Puerto Rico/8/1934(H1N1)) infected in MDCK cells; assay type: toxicity, cell-based; conditions: dog, read-out: Ratio CC50/EC50
Trypsin (Homo sapiens) = Trypsin (Homo sapiens) (UniProt P07477+P07478+P35030); assay: Inhibition of human trypsin using Boc-Gln-Ala-Arg-AMC as substrate preincubated for 15 mins followed by substrate addition and measured for 60 mins by fluorescence assay; assay type: protein assay; conditions: time 75.0 min
[7] = target: T1, Transmembrane protease serine 11D (Homo sapiens) (UniProt O60235); assay: Inhibition of recombinant human N-terminal His-tagged HAT (Ala42 to Ile418 residues) expressed in mouse NSO cells using Boc-Gln-Ala-Arg-AMC as substrate preincubated for 15 mins followed by substrate addition and measured for 60 mins by fluorescence assay; conditions: time 75.0 min
T1 sequence (whole entry): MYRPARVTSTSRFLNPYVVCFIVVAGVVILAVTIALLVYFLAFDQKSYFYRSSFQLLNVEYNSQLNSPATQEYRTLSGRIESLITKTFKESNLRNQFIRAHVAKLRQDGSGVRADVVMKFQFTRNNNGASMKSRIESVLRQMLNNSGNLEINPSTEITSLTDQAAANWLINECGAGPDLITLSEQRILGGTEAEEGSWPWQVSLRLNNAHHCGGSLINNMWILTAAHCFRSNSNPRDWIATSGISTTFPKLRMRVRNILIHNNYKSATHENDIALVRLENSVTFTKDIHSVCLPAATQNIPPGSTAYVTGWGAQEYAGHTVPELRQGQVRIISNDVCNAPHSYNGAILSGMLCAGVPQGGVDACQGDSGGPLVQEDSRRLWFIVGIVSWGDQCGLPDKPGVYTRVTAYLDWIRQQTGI

[8] = target: Cathepsin B (Homo sapiens) (UniProt P07858); assay: Inhibition of human liver cathepsin B using Z-Phe-Arg-AMC as substrate preincubated for 15 mins followed by substrate addition and measured for 60 mins by fluorescence assay; conditions: time 75.0 min
[9] = target: T2, Cathepsin F (Homo sapiens) (UniProt Q9UBX1); assay: Inhibition of recombinant human cathepsin F expressed in baculovirus infected insect cells using Z-Phe-Arg-AMC as substrate preincubated for 15 mins followed by substrate addition and measured for 60 mins by fluorescence assay; conditions: time 75.0 min
T2 sequence (whole entry): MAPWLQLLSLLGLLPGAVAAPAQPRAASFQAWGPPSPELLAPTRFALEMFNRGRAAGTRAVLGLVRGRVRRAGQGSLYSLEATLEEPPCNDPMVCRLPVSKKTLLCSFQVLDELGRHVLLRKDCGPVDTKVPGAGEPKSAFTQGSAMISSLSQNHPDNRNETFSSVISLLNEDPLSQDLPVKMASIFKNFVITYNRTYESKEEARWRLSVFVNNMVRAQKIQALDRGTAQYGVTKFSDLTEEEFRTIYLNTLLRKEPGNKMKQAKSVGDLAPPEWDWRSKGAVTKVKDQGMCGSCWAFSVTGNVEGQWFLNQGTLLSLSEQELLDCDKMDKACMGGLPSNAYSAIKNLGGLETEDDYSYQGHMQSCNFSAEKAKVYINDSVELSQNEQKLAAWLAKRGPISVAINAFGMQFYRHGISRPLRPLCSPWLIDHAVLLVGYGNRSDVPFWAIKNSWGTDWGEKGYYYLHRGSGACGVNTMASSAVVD

[10] = target: Procathepsin L (Homo sapiens) (UniProt P07711); assay: Inhibition of human liver cathepsin L using Z-Phe-Arg-AMC as substrate preincubated for 15 mins followed by substrate addition and measured for 60 mins by fluorescence assay; conditions: time 75.0 min
[11] = target: Cathepsin B (Homo sapiens) (UniProt P07858); assay: Inhibition of human liver cathepsin B at 1 uM using Z-Phe-Arg-AMC as substrate preincubated for 15 mins followed by substrate addition and measured for 60 mins by fluorescence assay; conditions: time 75.0 min
[12] = target: Procathepsin L (Homo sapiens) (UniProt P07711); assay: Inhibition of human liver cathepsin L at 1 uM using Z-Phe-Arg-AMC as substrate preincubated for 15 mins followed by substrate addition and measured for 60 mins by fluorescence assay; conditions: time 75.0 min
[13] = target: T2, Cathepsin F (Homo sapiens); assay: Inhibition of recombinant human cathepsin F expressed in baculovirus infected insect cells at 1 uM using Z-Phe-Arg-AMC as substrate preincubated for 15 mins followed by substrate addition and measured for 60 mins by fluorescence assay relative to control; conditions: time 75.0 min
Influenza A virus [14] = assay: Antiviral activity against Influenza A virus (A/PR 8/34 (H1N1)) infected in MDCK cells assessed as reduction in viral RNA synthesis at 2 uM treated at 5 hrs post-infection by RT-qPCR analysis; assay type: functional, organism-based; conditions: A/Puerto Rico/8/1934(H1N1)
[15] = target: Hemagglutinin (Influenza A virus (A/Puerto Rico/8/1934(H1N1))) (UniProt P03452); assay: Inhibition of Influenza A virus (A/PR 8/34 (H1N1)) hemagglutinin infected in MDCK cells assessed as reduction in virus binding to cell surface at 200 uM relative to control; assay type: cell-based
Chain of Hemagglutinin (Influenza A virus (A/Puerto Rico/8/1934(H1N1))) (P03452 whole entry): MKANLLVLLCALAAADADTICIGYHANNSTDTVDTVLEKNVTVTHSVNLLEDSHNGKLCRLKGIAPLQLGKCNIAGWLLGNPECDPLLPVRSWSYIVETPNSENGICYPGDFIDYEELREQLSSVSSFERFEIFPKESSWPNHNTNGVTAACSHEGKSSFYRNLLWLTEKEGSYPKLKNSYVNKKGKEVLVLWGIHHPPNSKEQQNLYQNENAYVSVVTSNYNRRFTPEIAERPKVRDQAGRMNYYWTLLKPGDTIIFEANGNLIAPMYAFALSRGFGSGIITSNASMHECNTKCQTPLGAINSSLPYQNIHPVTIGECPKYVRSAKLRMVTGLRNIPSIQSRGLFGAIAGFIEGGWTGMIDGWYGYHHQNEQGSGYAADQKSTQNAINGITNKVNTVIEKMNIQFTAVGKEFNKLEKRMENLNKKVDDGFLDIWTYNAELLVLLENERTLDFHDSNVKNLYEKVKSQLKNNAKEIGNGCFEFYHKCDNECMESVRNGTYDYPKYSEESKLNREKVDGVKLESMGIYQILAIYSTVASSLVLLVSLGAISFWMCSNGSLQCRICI

Chain of Procathepsin L (Homo sapiens) (P07711 114-333 limits assumed): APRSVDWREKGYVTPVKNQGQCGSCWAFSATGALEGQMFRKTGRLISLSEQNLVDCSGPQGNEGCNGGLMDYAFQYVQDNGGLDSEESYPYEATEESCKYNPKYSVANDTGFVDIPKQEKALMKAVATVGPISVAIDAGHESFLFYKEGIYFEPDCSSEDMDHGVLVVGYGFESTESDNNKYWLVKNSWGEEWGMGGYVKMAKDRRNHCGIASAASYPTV

Question: For CCN(CC)CCCC(C)Nc1ccnc2cc(Cl)ccc12 (stereo unspecified), which Activity (Influenza A virus [1]) is on record?
Answer: Active

Question: For CC(C)(C)OC(=O)N[C@@H](CC(N)=O)C(=O)N(Cc1ccc(F)cc1)C1(C(=O)NCc2ccccc2)CCN(Cc2ccccc2)CC1, which EC50 (Influenza A virus [2]) is on record?
Answer: 1800 nM

Question: What about the EC50 (Influenza A virus [3]) of the same compound?
Answer: 2100 nM

Question: What about the MCC at 72 h [4] of the same compound?
Answer: > 100 µM

Question: And the CC50 at 72 h [5]?
Answer: > 100000 nM

Question: What about the selectivity ratio [6] of the same compound?
Answer: 26

Question: And the inhibition (Trypsin (Homo sapiens))?
Answer: inactive

Question: And the inhibition [7]?
Answer: inactive

Question: And the inhibition [8]?
Answer: inactive

Question: And the inhibition [9]?
Answer: inactive

Question: And the inhibition [10]?
Answer: inactive

Question: With CC(C)C[C@H](NC(=O)[C@@H]1C[C@H]1C(=O)O)C(=O)NCCCCNC(=N)N as the compound, how does the inhibition [11] read?
Answer: Active

Question: What about the inhibition [12] of the same compound?
Answer: Active

Question: And the inhibition [13]?
Answer: 50%

Question: With Cc1onc(-c2ccccc2)c1C(=O)N1CCN(c2ccc([N+](=O)[O-])cc2Cl)CC1 as the compound, how does the Activity (Influenza A virus [14]) read?
Answer: Active

Question: Which inhibition [15] does the source give for CCCCCCCCCCCCCCCCCCCCCCOCC(C)(COCCCCCCCCCCCCCCCCCCCCCC)CO[C@]1(C(=O)O)C[C@H](OS(=O)(=O)O)[C@@H](NC(C)=O)[C@H]([C@H](O)[C@@H](COS(=O)(=O)O)OS(=O)(=O)O)O1 here?
Answer: 96%
